For one compound, MDA and iNOS positive cells results are on record in US10912741B2, “Prevention of liver cancer with safranal-based formulations” (United Arab Emirates University, priority 2019, dated 2021).

Structures are written as SMILES. Marks after values point to notes of the source that are not given here.

One assay relates to Malondialdehyde (MDA). Briefly: MDA level in liver homogenate, DEN/2-AAF hepatocarcinogenesis model. The format is in vivo, albino Wistar rats. Conditions: mean±SEM, 8 rats. As for the experimental part:
The experimental hepatocarcinogenesis model was developed according to a protocol by […] et al. that was adapted for our purposes. To initiate and promote hepatocarcinogenesis, diethylnitrosamine (DEN) and 2-acetylaminofluorene (2-AAF) were used, respectively. For hepatocarcinogenesis initiation in this model, a single DEN dose (200 mg/kg b.wt.) dissolved in saline was injected intraperitoneally. After initiation, all rats underwent one period of 5-days fasting, as mitotic proliferative stimuli. To promote hepatocarcinogenesis, 2-acetylaminofluorene (2-AAF) was introduced in the form of six daily intragastric doses (30 mg/kg in 1% Tween 80); two weeks after DEN treatment. […] at doses of 25 mg/kg by weight (b.wt.) and 50 mg/kg b.wt, was administrated orally to rats. These doses have been reported to suppress chemically-induced oxidative damage in rats. A total of 40 adult male albino Wistar rats were randomly divided into […] (n=8) and were subjected to different treatments. Group 1 (control) was orally administered distilled water (5 ml/kg b.wt.) throughout the experimental duration and were injected with a single dose of saline. Group 2 ([…] only) was subjected to a safranal dose (50 mg/kg b.wt.) through oral administration for the duration of the experimental period. Hepatocarcinogenesis was induced by DEN and promoted by 2-AAF, as reported previously, in group 3 (HCC). […] Glutathione (GSH) content was determined by analyzing liver homogenates, according to the method of Van Dooran et al. The assay depends on measuring yellow 5-thiol-2-nitrobenzoate absorbance at 412 nm. Glutathione-S-transferase (GST) activity was determined using the method of Habig et al. GST catalyzes the conjugation of GSH thiol group with 1-Chloro-2,4-dinitrobenzene (CDNB), which can be measured by determining the increase in absorbance at 340 nm. […] CAT decomposes hydrogen peroxide (H2O2) to oxygen and water; therefore, the activity of CAT was evaluated according to by the exponential decomposition of H2O2 at 240 nm. […] UV-160-Shimadzu recording spectrophotometer was used to record absorbances. […]

In the next assay the test system is iNOS. Briefly: Immunohistochemical staining of liver sections, iNOS positive cells. Format: in vivo, albino Wistar rats. The following applies: mean±SEM, 8 rats. As for the experimental part:
The experimental hepatocarcinogenesis model was developed according to a protocol by Espandiaria et al. that was adapted for our purposes. To initiate and promote hepatocarcinogenesis, diethylnitrosamine (DEN) and 2-acetylaminofluorene (2-AAF) were used, respectively. For hepatocarcinogenesis initiation in this model, a single DEN dose (200 mg/kg b.wt.) dissolved in saline was injected intraperitoneally. After initiation, all rats underwent one period of 5-days fasting, as mitotic proliferative stimuli. To promote hepatocarcinogenesis, 2-acetylaminofluorene (2-AAF) was introduced in the form of six daily intragastric doses (30 mg/kg in 1% Tween 80); two weeks after DEN treatment.
Safranal at doses of 25 mg/kg by weight (b.wt.) and 50 mg/kg b.wt, was administrated orally to rats. These doses have been reported to suppress chemically-induced oxidative damage in rats. A total of 40 adult male albino Wistar rats were randomly divided into […] (n=8) and were subjected to different treatments. Group 1 (control) was orally administered distilled water (5 ml/kg b.wt.) throughout the experimental duration and were injected with a single dose of saline. Group 2 (Safranal only) was subjected to a safranal dose (50 mg/kg b.wt.) through oral administration for the duration of the experimental period. Hepatocarcinogenesis was induced by DEN and promoted by 2-AAF, as reported previously, in group 3 (HCC). Rats in protective groups (groups 4-5) were treated with low/high doses of saffron-based safranal suspensions, at the beginning of promotion periods and continued for 12 weeks. The low dosage treatment with safranal consisted of 25 mg/kg b.wt., and the high dosage treatment consisted of 50 mg/kg b.wt. The experimental design is illustrated in FIG. 1.
For immunohistochemical staining, mounted sections were immersed in sodium citrate buffer (0.1 M, pH 6) and placed in a water bath for 15 minutes to unmask antigen epitopes. […] Ten fields were randomly selected to quantify positive cells, in individual samples (400×). […]

Where [1] appears, read: HCC (DEN/2-AAF) rats + safranal high dose 50 mg/kg b.wt. oral, 12 weeks.
The mark [2] stands for this setting: HCC (DEN/2-AAF) rats + safranal low dose 25 mg/kg b.wt. oral, 12 weeks.
Setting [3] is: safranal alone 50 mg/kg b.wt. oral, no DEN (group 2).

Turning to `CC1=C(C=O)C(C)(C)CC=C1` [Safranal, 2,6,6-trimethylcyclohexa-1,3-diene-1-carbaldehyde], the MDA in the assay on Malondialdehyde (MDA) (setting [1]) is 0.63 ± 0.03 nmol/mg protein; in the assay with Malondialdehyde (MDA) (setting [2]) it was 0.61 ± 0.02 nmol/mg protein; with Malondialdehyde (MDA) (setting [3]), 0.64 ± 0.02 nmol/mg protein. For the same compound, the iNOS positive cells is given as 2.57 ± 0.30^b positive cells/field in the assay with iNOS (setting [1]), 5.09 ± 0.26^a&b positive cells/field in the assay with iNOS (setting [2]) and 0.87 ± 0.04 positive cells/field with iNOS (setting [3]).
